Experimental data reported in PMC9365693 (Nature, 2022).
Values joined by “and” are separate entries in the source; they are usually repeats but may differ in a detail not shown here. Equal entries are not always repeated. “Also recorded” adds a separate entry of the source. Where two headings read alike, the source gives them in different places.

Columns and labels:
[1] = HS-AFM of teixobactin–lipid II fibrils on supported lipid bilayer
Procedure: (§1) The HS-AFM images were acquired in amplitude modulation tapping mode in liquid using a high-speed atomic force microscope (RIBM). Short cantilevers (approximately 7 μm) with a nominal spring constant of 0.15 N m^−1 were used (USC-F1.2-k0.15, NanoWorld). A minimal imaging force was applied by using a small set-point amplitude of 0.8 nm (for a 1 nm free amplitude). […] The lipid bilayer was obtained by incubating LUVs containing DOPC and lipid II (prepared as mentioned above) on top of a freshly cleaved mica for 20–30 min. […] Imaging was started on the lipid bilayer surface in recording buffer. […] Images were primarily processed using built-in scripts (RIBM) in Igor Pro (Wavemetrics) and analysed using ImageJ software. The images or videos were corrected minimally for tilt, drift and contrast. […] Image acquisition rate varies from 0.5 frames per second to 2 frames per seconds (see Fig. 2, Extended Data Figs. 5, 6, or legends of Supplementary Videos 1 and 2), and the line rate varies from 150 lines per second to 400 lines per second. […] Stated errors are standard deviation.

[2] = HS-AFM control experiments (membrane height; bilayers without lipid II); design: membrane height: unit not given here; settings: for membrane height: source data Ext. Data Fig. 6, DOPC + 1% lipid II, after 30 mins incubation with 800 nM
Procedure: as §1
Extended Data Fig. 6 HS-AFM control experiments. […] Source data

Staphylococcus simulans = assay: DiSC membrane depolarization (ion leakage) assay, S. simulans; assay type: cell-based; settings: DiSC-2 probe, Gram-positive bacteria (Fig. 4h and Extended Data Fig. 10b,c), 20 °C, pH 7.2, 2 min before and 6 min after antibiotic; triplicates
Procedure: (§2) The bacterial cultures were grown overnight at 30 °C in TSB media for S. simulans and at 37 °C in LB medium for Bacillus subtilis. Secondary cultures were grown for 3 h until OD600 = 0.5 was reached. The bacterial cells were then centrifuged at 1,500g for 10 min at 4 °C and washed twice with 10 ml of buffer (10 mM Tris, 100 mM NaCl, 1 mM MgCl2 and 0.5% glucose, pH 7.2). The bacterial cells were resuspended to an OD600 = 10 in the buffer and used for the experiment. […] For the assay, 1 μl of the bacterial suspension was added to 1 ml of buffer. For the ion leakage assays, 1 μl of the DiSC-2 probe from a 1 mM stock was added to the cuvette and the fluorescence was measured between a wavelength of 650 nm and 670 nm (bandwidth of […]) for 2 min before the addition of the antibiotic and 6 min after. For the Sytox green leakage assays, 1 μl of the Sytox green probe from a 0.25 mM stock was added to the cuvette and the fluorescence was measured between a wavelength of 500 nm and 520 nm (bandwidth of […]) for 2 min before the addition of the antibiotic and 6 min after. All experiments were performed in triplicates.

B. subtilis = assay: MIC, B. subtilis (given with permeabilization assay concentrations); assay type: cell-based, Bacillus subtilis
Procedure: as §2

[3] = Scalar TOBSY ssNMR: mobility of the lipid II pentapeptide in the complex; assay type: binding; settings: 8 kHz MAS, 300 K, compared with R4L10-teixobactin
Text: T1rho trajectories were fit to single exponentials.
Interfacial contacts are labelled in green. Lipid II pentapeptide signals are marked with an asterisk, e.g., A1*αβ. b) Zoom into the spectrum acquired with 300 ms magnetization transfer. […] The spectrum is based on a scalar 2D ^13C^13C TOBSY[35] ssNMR experiment with the complex formed by ^13C,^15N-teixobactin and ^13C,^15N-Lipid II in liposomes acquired at 950 MHz, 8 kHz MAS, and 300 K temperature. Teixobactin and the Lipid II sugars are not visible in the spectrum (cyan). Conversely, the last three residues (Lys3-Ala4-Ala5) of the Lipid II pentapeptide give scalar signals indicating high mobility and no involvement in complex formation. […] Likewise, the K3αγ signal of the third pentapeptide residue was only visible for R4L10-teixobactin. […] All experiments were performed in triplicates. All the parameter values are shown as mean +/− SD.

[4] = for interaction with lipid II moieties (in words): ssNMR, DOPC liposomes with 4 mol% lysine-lipid II, pH 7.2
Procedure: Multi-lamellar vesicles of DOPC doped with 4 mol% lysine-lipid II in buffer (40 mM Na2PO4 and 25 mM NaCl, pH 7.2) were collected by centrifugation (60,000g) and loaded into ssNMR rotors. […] For 1.3-mm rotors, samples contained 200 nmol of antibiotic for unlabelled lipid II.
^1H-detected ssNMR experiments were performed at 60 kHz magic angle spinning (MAS) using magnetic fields of 700 and 950 MHz (^1H frequency). […] T1rho trajectories were fit to single exponentials. 2D CC experiments were acquired with PARISxy[33],[53] recoupling (m = 1) at 950 MHz magnetic field and 18 kHz MAS. A 2D CαN experiment was acquired at 700 MHz, 12 kHz MAS and 5 ms N to C cross-polarization transfer time. […] The scalar TOBSY[35] experiment was acquired at 700 MHz using 8 kHz MAS with 6 ms CC mixing time. The mobility edited H(H)C experiment[25] was measured at 700 MHz with 16.5 kHz MAS at a temperature of 300 K using a T2 relaxation filter of 2.5 ms. 1D MAS ^31P experiments were acquired at 500 MHz magnetic field and 12 kHz MAS. 2D HP experiments were acquired at 800 MHz and 60 kHz MAS using 1 and 2 ms ^1H to ^31P cross-polarization contact time. Static ^31P ssNMR experiments were acquired at 500 MHz magnetic field without sample spinning.

[5] = Pyrene-labelled lipid II excimer fluorescence (oligomerization); settings: DOPC LUVs with 0.5 mol% pyrene-lipid II, 10 mM Tris-Cl 100 mM NaCl pH 8.0, 20 °C

For teixobactin, the “depth of fibrillar sheets below the membrane surface (membrane thinning)” value ([1]; 50 min after 800 nM teixobactin) was “approximately 0.5 nm”, the “height of fibrils on the membrane surface” value ([1]; DOPC bilayer with lipid II, 10 mM Tris-Cl 100 mM NaCl pH 8.0, error is standard deviation) was 0.8 ± 0.1 nm and the “peak-to-peak distance between fibrils in sheets” value ([1]; after the fibrils have descended into the surface) was ~ 8 nm. The “formation of fibrils (in words)” value ([1]; lipid II-doped bilayer) was “Fibrils were solely observed in the presence of both teixobactin and lipid II; also recorded: fibrils solely form in the presence of both teixobactin and Lipid II”, the “HS-AFM control result (in words)” value ([2]; membrane height at positions without fibrils, 30 min after teixobactin) was “membrane height at positions without fibrils remains unaltered” and the membrane height ([2]; individual measurement, one line each) was 4.81 and 4.99 and 5.22 and 4.65 and 4.79 and 5.05 and 5.1 and 4.77 and 4.67 and 5.01 and 4.5 and 4.97 and 4.95 and 5 and 4.87 and 4.68 and 4.96 and 4.63 and 4.88 and 4.89 and 4.9 and 5.12 and 4.8. The membrane height ([2]; mean) was 4.873, the “decrease in membrane potential / depolarization (in words)” value (Staphylococcus simulans) was “sharp decrease in the membrane potential” and the “concentration stated as 10× MIC” value (B. subtilis) was 0.2 µM. The “rigidity of lipid II pentapeptide in the complex (in words)” value [3] was “the pentapeptide is more rigid in the complex with teixobactin than with R4L10-teixobactin”, the “number of interfacial End10–MurNAc ssNMR contacts” value ([4]; 2D 13C13C PARISxy, 13C,15N-teixobactin and 13C,15N-lipid II in DOPC liposomes) was 11 and the “interaction with lipid II moieties (in words)” value ([4]; listed as Teixobactin) was “did not bind to the pentapeptide of lipid II”. For the same substance, the “interaction with lipid II moieties (in words)” value ([4]; listed as natural teixobactin) was “tight and specific interactions” and the “oligomerization by pyrene-tagged lipid II (in words)” value [5] was “with the increase in teixobactin concentration there is a relative decrease in the monomer signal followed by a respective increase in the excimer signal; also recorded: oligomers form immediately after the addition of teixobactin”.
